# Experimental data taken from patent US8247211B2, “Glycopeptide antibiotics” (American Cyanamid Company, priority 2001, dated 2012).
# What was measured:
# Escherichia coli = experiment: In vitro antibacterial evaluation: minimum inhibitory concentration (MIC), broth dilution method; assay type: cell-based
# Method in brief: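 Broth dilution per NCCLS M7-A2 in Muller-Hinton II […], inoculum 5×10^5 CFU/mL, antibiotic tested over 64-0.06 μg/mL. MIC is taken as the lowest concentration that inhibits growth. Panel includes recent clinical isolates resistant to methicillin, penicillin and/or vancomycin.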
# Staphylococcus sp. = experiment: as above; assay type: cell-based
# Method in brief: (§1)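 Following NCCLS approved standard M7-A2, compounds are serially diluted from 64 to 0.06 μg/mL in Muller-Hinton II […] and inoculated at 5×10^5 CFU/mL; the MIC is the minimum concentration at which growth is inhibited.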
# Enterococcus sp. = experiment: as above; assay type: cell-based
# Method in brief: as §1
# Streptococcus sp. = experiment: as above; assay type: cell-based
# Method in brief: as §1
# [1] = tested on: Staphylococcus aureus-SMITH (GC 4543); experiment: Acute lethal infection in mice (ED50); assay type: in vivo; conditions: female CD-1 mice, intraperitoneal challenge, intravenous dose 30 min. after infection, 7 day survival ratios
# Description: The therapeutic effects of glycopeptide antibiotics of Formula I are determined against acute lethal infections with S. aureus (strain Smith), a penicillin resistant strain of S. pneumoniae (strain GC 1894), and a vancomycin resistant strain of E. fecalis (strain GC 6189 and GC 2246). Female mice, CD-1 (Charles River Laboratories), 20 +1-2 gm, are challenged by intraperitoneal injection of sufficient bacteria (suspended in Trypticase Soy Broth or hog gastric mucin) to kill non-treated controls within 24-48 hr. Antibacterial agents, contained in 0.2 mL of saline or 5% dextrose solution, are administered intravenously 30 min. after infection. Five mice are treated at each dose level. The 7 day survival ratios from 3 separate tests are pooled for calculation of median effective dose (ED50).
# [2] = broth dilution, 18 hours at 35° C.
# [3] = 5×10^5 CFU/mL, 18 hours at 35° C.
# [4] = broth dilution, 5×10^5 CFU/mL, 18 hours at 35° C.
structure (smiles),measurement,setting,value
"CC(c1ccccc1)C1NC(=O)CNC(=O)C(CO)NC(=O)C(CC2CN(Cc3ccccc3)C(=N)N2C2OC(CO)C(O)C(O)C2O)NC(=O)C(CC2CNC(=N)N2)NC(=O)C(Cc2ccc(OC3OC(CO)C(OC4OC5COC6(OC5C(O)C4O)C4CC5CC(C4)CC6C5)C(O)C3O)cc2)NC1=O (stereo not drawn) [Example 80, Cyclo[3-(2-iminoimidazolidin-4-yl)alanyl-3-(1-benzyl-3-hexopyranosyl-2-iminoimidazolidin-4-yl)alanylserylglycyl-β-methylphenylalanyl-O-[4-O-[4,6-O-(2-adamantylidene)hexopyranosyl]hexopyranosyl]tyrosyl]]",MIC Escherichia coli (ATCC 25922),Escherichia coli; strain ATCC 25922,>64 µg/mL
same,MIC Escherichia coli (GC 4559),Escherichia coli; strain GC 4559,>64 µg/mL
same,MIC Escherichia coli (GC 4560),Escherichia coli; strain GC 4560,8 µg/mL
same,MIC Coagulase Negative Staphylococcus (GC 4547),Staphylococcus sp.; [2],32 µg/mL
same,MIC Coagulase Negative Staphylococcus (GC 4548),Staphylococcus sp.; [2],32 µg/mL
same,MIC Coagulase Negative Staphylococcus (GC 4549),Staphylococcus sp.; [2],32 µg/mL
same,MIC Coagulase Negative Staphylococcus (GC 4551),Staphylococcus sp.; [2],32 µg/mL
same,MIC Coagulase Negative Staphylococcus (GC 6257),Staphylococcus sp.; [2],8 µg/mL
same,MIC Staphylococcus aureus (ATCC 29213),Staphylococcus sp.; [2],32 µg/mL
same,MIC Staphylococcus aureus (GC 1131),Staphylococcus sp.; [2],32 µg/mL
same,MIC Staphylococcus aureus (GC 3051),Staphylococcus sp.; [2],32 µg/mL
same,MIC Staphylococcus aureus (GC 3053),Staphylococcus sp.; [2],64 µg/mL
same,MIC Staphylococcus aureus (GC 4541),Staphylococcus sp.; [2],32 µg/mL
same,MIC Staphylococcus aureus (GC 4542),Staphylococcus sp.; [2],32 µg/mL
same,MIC Staphylococcus aureus (GC 4544),Staphylococcus sp.; [2],32 µg/mL
same,MIC Staphylococcus aureus (GC 4545),Staphylococcus sp.; [2],32 µg/mL
same,MIC Staphylococcus aureus SMITH (GC 4543),Staphylococcus sp.; [2],32 µg/mL
same,MIC Staphylococcus haemolyticus (GC 4546),Staphylococcus sp.; [2],32 µg/mL
same,MIC Staphylococcus aureus-SMITH (GC 4543),"Staphylococcus sp.; strain SMITH GC 4543, broth dilution, 18 hours at 35° C.",32 µg/mL
same,MIC Enterococcus faecalis (GC 2242),"Enterococcus sp.; Enterococcus faecalis (GC 2242), broth dilution, 18 hours at 35° C.",32 µg/mL
same,MIC Enterococcus faecalis (GC 2691),"Enterococcus sp.; Enterococcus faecalis (GC 2691), broth dilution, 18 hours at 35° C.",64 µg/mL
same,MIC Enterococcus faecalis (GC 3059),"Enterococcus sp.; Enterococcus faecalis (GC 3059), broth dilution, 18 hours at 35° C.",64 µg/mL
same,MIC Enterococcus faecalis (ATCC 29212),Enterococcus sp.; strain ATCC 29212,64 µg/mL
same,MIC Enterococcus faecalis (GC 2242),Enterococcus sp.; strain GC 2242,32 µg/mL
same,MIC Enterococcus faecium (GC 2243),Enterococcus sp.; strain GC 2243,32 µg/mL
same,MIC Enterococcus faecalis (GC 2691),Enterococcus sp.; strain GC 2691,64 µg/mL
same,MIC Enterococcus faecalis (GC 3059),Enterococcus sp.; strain GC 3059,64 µg/mL
same,MIC Enterococcus faecalis (GC 4552),Enterococcus sp.; strain GC 4552,64 µg/mL
same,MIC Enterococcus faecalis (GC 4553),Enterococcus sp.; strain GC 4553,32 µg/mL
same,MIC Enterococcus faecalis (GC 4554),Enterococcus sp.; strain GC 4554,64 µg/mL
same,MIC Enterococcus faecium (GC 4556),Enterococcus sp.; strain GC 4556,64 µg/mL
same,MIC Enterococcus faecium (GC 4557),Enterococcus sp.; strain GC 4557,16 µg/mL
same,MIC Enterococcus avium (GC 4558),Enterococcus sp.; strain GC 4558,32 µg/mL
same,MIC Enterococcus faecalis (GC 6189),Enterococcus sp.; strain GC 6189,64 µg/mL
same,MIC Streptococcus agalactiae (GC 4564),"Streptococcus sp.; Streptococcus agalactiae (GC 4564), broth dilution, 18 hours at 35° C.",8 µg/mL
same,MIC Streptococcus pneumoniae (ATCC 6301),"Streptococcus sp.; Streptococcus pneumoniae (ATCC 6301), broth dilution, 18 hours at 35° C.",8 µg/mL
same,MIC Streptococcus pneumoniae (GC 1894),"Streptococcus sp.; Streptococcus pneumoniae (GC 1894), broth dilution, 18 hours at 35° C.",4 µg/mL
same,MIC Streptococcus pneumoniae (GC 4565),"Streptococcus sp.; Streptococcus pneumoniae (GC 4565), broth dilution, 18 hours at 35° C.",16 µg/mL
same,MIC Streptococcus pyogenes (GC 4563),"Streptococcus sp.; Streptococcus pyogenes (GC 4563), broth dilution, 18 hours at 35° C.",8 µg/mL
same,MIC Streptococcus pneumoniae (ATCC 6301),Streptococcus sp.; strain ATCC 6301,8 µg/mL
same,MIC Streptococcus pneumoniae (GC 1894),Streptococcus sp.; strain GC 1894,4 µg/mL
same,MIC Streptococcus pyogenes (GC 4563),Streptococcus sp.; strain GC 4563,8 µg/mL
same,MIC Streptococcus agalactiae (GC 4564),Streptococcus sp.; strain GC 4564,8 µg/mL
same,MIC Streptococcus pneumoniae (GC 4565),Streptococcus sp.; strain GC 4565,16 µg/mL
same,"median effective dose (ED50), Staphylococcus aureus-SMITH (GC 4543)",[1],>8
COc1ccc(CC2OCC3OC(OC4C(CO)OC(Oc5ccc(CC6NC(=O)C(C(C)c7ccccc7)NC(=O)CNC(=O)C(CO)NC(=O)C(C(O)C7CNC(=N)N7C7OC(CO)C(O)C(O)C7O)NC(=O)C(C(O)C7CNC(=N)N7)NC6=O)cc5)C(O)C4O)C(O)C(O)C3O2)cc1 (stereo not shown) [Example 103],MIC Escherichia coli (ATCC 25922),Escherichia coli; [3],64 µg/mL
same,MIC Escherichia coli (GC 4559),Escherichia coli; [3],64 µg/mL
same,MIC Escherichia coli (GC 4560),Escherichia coli; [3],1 µg/mL
same,MIC Staphylococcus aureus (ATCC 29213),Staphylococcus sp.; strain ATCC 29213,2 µg/mL
same,MIC Staphylococcus aureus (GC 1131),Staphylococcus sp.; strain GC 1131,2 µg/mL
same,MIC Staphylococcus aureus (GC 3051),Staphylococcus sp.; strain GC 3051,1 µg/mL
same,MIC Staphylococcus aureus (GC 3053),Staphylococcus sp.; strain GC 3053,2 µg/mL
same,MIC Staphylococcus aureus (GC 4541),Staphylococcus sp.; strain GC 4541,2 µg/mL
same,MIC Staphylococcus aureus (GC 4542),Staphylococcus sp.; strain GC 4542,2 µg/mL
same,MIC Staphylococcus aureus-SMITH (GC 4543),"Staphylococcus sp.; strain GC 4543, 18 hours at 35° C.",1 µg/mL
same,MIC Staphylococcus aureus-SMITH (GC 4543),"Staphylococcus sp.; strain GC 4543, broth dilution, 18 hours at 35° C.",1 µg/mL
same,MIC Staphylococcus aureus (GC 4544),Staphylococcus sp.; strain GC 4544,2 µg/mL
same,MIC Staphylococcus aureus (GC 4545),Staphylococcus sp.; strain GC 4545,1 µg/mL
same,MIC Staphylococcus haemolyticus (GC 4546),Staphylococcus sp.; strain GC 4546,1 µg/mL
same,MIC Staphylococcus haemolyticus (GC 4546),"Staphylococcus sp.; strain GC 4546, broth dilution, 18 hours at 35° C.",1 µg/mL
same,MIC Coagulase Negative Staphylococcus (GC 4547),Staphylococcus sp.; strain GC 4547,2 µg/mL
same,MIC Coagulase Negative Staphylococcus (GC 4547),"Staphylococcus sp.; strain GC 4547, broth dilution, 18 hours at 35° C.",2 µg/mL
same,MIC Coagulase Negative Staphylococcus (GC 4548),Staphylococcus sp.; strain GC 4548,1 µg/mL
same,MIC Coagulase Negative Staphylococcus (GC 4548),"Staphylococcus sp.; strain GC 4548, broth dilution, 18 hours at 35° C.",1 µg/mL
same,MIC Coagulase Negative Staphylococcus (GC 4549),Staphylococcus sp.; strain GC 4549,1 µg/mL
same,MIC Coagulase Negative Staphylococcus (GC 4549),"Staphylococcus sp.; strain GC 4549, broth dilution, 18 hours at 35° C.",1 µg/mL
same,MIC Coagulase Negative Staphylococcus (GC 4551),Staphylococcus sp.; strain GC 4551,2 µg/mL
same,MIC Coagulase Negative Staphylococcus (GC 4551),"Staphylococcus sp.; strain GC 4551, broth dilution, 18 hours at 35° C.",2 µg/mL
same,MIC Coagulase Negative Staphylococcus (GC 6257),Staphylococcus sp.; strain GC 6257,1 µg/mL
same,MIC Coagulase Negative Staphylococcus (GC 6257),"Staphylococcus sp.; strain GC 6257, broth dilution, 18 hours at 35° C.",1 µg/mL
same,MIC Enterococccus avium (GC 4558),Enterococcus sp.; [4],8 µg/mL
same,MIC Enterococccus faecalis (ATCC 29212),Enterococcus sp.; [4],4 µg/mL
same,MIC Enterococccus faecalis (GC 2691),Enterococcus sp.; [4],8 µg/mL
same,MIC Enterococccus faecalis (GC 3059),Enterococcus sp.; [4],8 µg/mL
same,MIC Enterococccus faecalis (GC 4552),Enterococcus sp.; [4],8 µg/mL
same,MIC Enterococccus faecalis (GC 4553),Enterococcus sp.; [4],8 µg/mL
same,MIC Enterococccus faecalis (GC 4554),Enterococcus sp.; [4],8 µg/mL
same,MIC Enterococccus faecalis (GC 6189),Enterococcus sp.; [4],4 µg/mL
same,MIC Enterococccus faecium (GC 2243),Enterococcus sp.; [4],4 µg/mL
same,MIC Enterococccus faecium (GC 4556),Enterococcus sp.; [4],4 µg/mL
same,MIC Enterococccus faecium (GC 4557),Enterococcus sp.; [4],2 µg/mL
same,MIC Enterococcus faecalis (GC 2242),Enterococcus sp.; [4],4 µg/mL
same,MIC Streptococcus agalactiae (GC 4564),Streptococcus sp.; [4],0.5 µg/mL
same,MIC Streptococcus pneumoniae (GC 1894),Streptococcus sp.; [4],0.12 µg/mL
same,MIC Streptococcus pneumoniae (GC 4565),Streptococcus sp.; [4],0.12 µg/mL
same,MIC Streptococcus pneumonine (ATCC 6301),Streptococcus sp.; [4],0.12 µg/mL
same,MIC Streptococcus pyogenes (GC 4563),Streptococcus sp.; [4],0.25 µg/mL
same,"median effective dose (ED50), Staphylococcus aureus-SMITH (GC 4543)",[1],0.28 mg/kg
